From patent US20150299188A1, “HETEROCYCLIC COMPOUND” (priority 2012, published 2015)

System: FLAP (5-lipoxygenase activating protein)
Assay: In vitro binding test: displacement of [3H]-7-chloro-3-(5-((3-fluoropyridin-2-yl)methoxy)-2-methylphenyl)-3,4-dihydroquinazolin-2(1H)-one from Sf9 microsome fractions
Design: species or system human and mouse
Conditions: Sf9 microsome fractions expressing FLAP; 100% = radioligand binding with 10 μM sodium 3-(3-(tert-butylsulfanyl)-1-(4-chlorobenzyl)-5-isopropyl-1H-indol-2-yl)-2,2-dimethylpropanoate, 0% = DMSO; test compound concentration not given
How it was run: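 Sf9 microsomes expressing human or mouse FLAP (2 μg/mL) preincubated with compound 10 min at room temperature, then 120 nM tritiated quinazolinone ligand added for 60 min; buffer 100 mM Tris-HCl pH 7.5 with NaCl, EDTA, DTT, glycerol, Tween20. Bound ligand filtered and counted by scintillation; 10 μM indole propanoate defines 100% inhibition, DMSO 0%.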

| Structure (SMILES) | inhibitory rate (%) |
| --- | --- |
| Cc1cc2c(cc1N1Cc3ccc(C(=O)N4CCOCC4)cc3NC1=O)OC(c1ncccc1F)CC2 (stereo not drawn) [Example 183, 3-(2-(3-fluoropyridin-2-yl)-6-methyl-3,4-dihydro-2H-chromen-7-yl)-7-(morpholin-4-ylcarbonyl)-3,4-dihydroquinazolin-2(1H)-one] | 96% |
| O=C1Nc2cc(-c3noc(=S)[nH]3)nc(C3CC3)c2CN1c1cc2c(cc1Cl)CCC(c1ncccc1F)O2 (stereo not drawn) [Example 118, 3-(6-chloro-2-(3-fluoropyridin-2-yl)-3,4-dihydro-2H-chromen-7-yl)-5-cyclopropyl-7-(5-thioxo-4,5-dihydro-1,2,4-oxadiazol-3-yl)-3,4-dihydropyrido[4,3-d]pyrimidin-2(1H)-one] | 104% |
| COC(=O)/C=C/c1cc2c(c(C3CC3)n1)CN(c1cc3c(cc1C)CCC(c1ncccc1F)O3)C(=O)N2 (stereo not drawn) [Example 89, methyl (2E)-3-(5-cyclopropyl-3-(2-(3-fluoropyridin-2-yl)-6-methyl-3,4-dihydro-2H-chromen-7-yl)-2-oxo-1,2,3,4-tetrahydropyrido[4,3-d]pyrimidin-7-yl)acrylate] | 98% |
| CNC(=O)c1cc2c(c(C3CC3)n1)CN(c1cc3c(cc1Cl)CCC(c1ncccc1F)O3)C(=O)N2 (stereo not drawn) [Example 99, 3-(6-chloro-2-(3-fluoropyridin-2-yl)-3,4-dihydro-2H-chromen-7-yl)-5-cyclopropyl-N-methyl-2-oxo-1,2,3,4-tetrahydropyrido[4,3-d]pyrimidine-7-carboxamide] | 94% |
| Cc1cnn(-c2cc3c(c(C4CC4)n2)CN(c2cc4c(cc2C)CCC(c2ncccc2F)O4)C(=O)N3)c1 (stereo not drawn) [Example 133, 5-cyclopropyl-3-(2-(3-fluoropyridin-2-yl)-6-methyl-3,4-dihydro-2H-chromen-7-yl)-7-(4-methyl-1H-pyrazol-1-yl)-3,4-dihydropyrido[4,3-d]pyrimidin-2(1H)-one] | 100% |
| Cc1ccc(OCc2c(F)cccc2F)cc1N1Cc2ccc(C3=NC(C)(C)C(=O)O3)cc2NC1=O [Example 210, 3-(5-((2,6-difluorobenzyl)oxy)-2-methylphenyl)-7-(4,4-dimethyl-5-oxo-4,5-dihydro-1,3-oxazol-2-yl)-3,4-dihydroquinazolin-2(1H)-one] | 96% |
| Cc1cc2c(cc1N1Cc3c(Cl)cnc(-c4cnn(C)c4)c3NC1=O)OC(c1ncccc1F)CC2 (stereo not drawn) [Example 148, 5-chloro-3-(2-(3-fluoropyridin-2-yl)-6-methyl-3,4-dihydro-2H-chromen-7-yl)-8-(1-methyl-1H-pyrazol-4-yl)-3,4-dihydropyrido[3,4-d]pyrimidin-2(1H)-one] | 97% |
| Cc1cc2c(cc1N1Cc3c(cc(N4CCCC4=O)nc3C3CC3)NC1=O)OC(c1ncccc1F)CC2 (stereo not drawn) [Example 144, 5-cyclopropyl-3-(2-(3-fluoropyridin-2-yl)-6-methyl-3,4-dihydro-2H-chromen-7-yl)-7-(2-oxopyrrolidin-1-yl)-3,4-dihydropyrido[4,3-d]pyrimidin-2(1H)-one] | 92% |
| O=C1Nc2cc(C3CC3)nc(C3CC3)c2CN1c1ccc2c(c1)OC(c1ncccc1F)CC2 (stereo not drawn) [Example 90, 5,7-dicyclopropyl-3-(2-(3-fluoropyridin-2-yl)-3,4-dihydro-2H-chromen-7-yl)-3,4-dihydropyrido[4,3-d]pyrimidin-2(1H)-one] | 118% |
| COc1ncc(C(F)(F)F)c2c1NC(=O)N(c1cc3c(cc1C)CCC(c1ncccc1F)O3)C2 (stereo not drawn) [Example 107, 3-(2-(3-fluoropyridin-2-yl)-6-methyl-3,4-dihydro-2H-chromen-7-yl)-8-methoxy-5-(trifluoromethyl)-3,4-dihydropyrido[3,4-d]pyrimidin-2(1H)-one] | 93% |
| Cc1ccc(OCc2c(F)cccc2F)cc1N1Cc2cccc(C(C)(C)O)c2NC1=O [Example 217, 3-(5-((2,6-difluorobenzyl)oxy)-2-methylphenyl)-8-(2-hydroxypropan-2-yl)-3,4-dihydroquinazolin-2(1H)-one] | 87% |
| COc1cncc2c1CN(c1cc3c(cc1C)CCC(c1ncccc1F)O3)C(=O)N2 (stereo not drawn) [Example 23, 3-(2-(3-fluoropyridin-2-yl)-6-methyl-3,4-dihydro-2H-chromen-7-yl)-5-methoxy-3,4-dihydropyrido[3,4-d]pyrimidin-2(1H)-one] | 92% |
| Cc1ccc(OCc2c(F)cccc2F)cc1N1Cc2cnccc2NC1=O [Example 235, 3-(5-((2,6-difluorobenzyl)oxy)-2-methylphenyl)-3,4-dihydropyrido[4,3-d]pyrimidin-2(1H)-one] | 79% |
| Cc1cc2c(cc1N1Cc3c(cc(-n4cc(CO)cn4)nc3C3CC3)NC1=O)OC(c1ncccc1F)CC2 (stereo not drawn) [Example 123, 5-cyclopropyl-3-(2-(3-fluoropyridin-2-yl)-6-methyl-3,4-dihydro-2H-chromen-7-yl)-7-(4-(hydroxymethyl)-1H-pyrazol-1-yl)-3,4-dihydropyrido[4,3-d]pyrimidin-2(1H)-one] | 98% |
| Cc1ccc(OCc2c(F)cccc2F)cc1N1Cc2ccc(C(=O)NC(C)(C)C(=O)O)cc2NC1=O [Example 207, N-((3-(5-((2,6-difluorobenzyl)oxy)-2-methylphenyl)-2-oxo-1,2,3,4-tetrahydroquinazolin-7-yl)carbonyl)-2-methylalanine] | 87% |
| COCCNC(=O)c1cc2c(c(C3CC3)n1)CN(c1cc3c(cc1Cl)CCC(c1ncccc1F)O3)C(=O)N2 (stereo not drawn) [Example 97, 3-(6-chloro-2-(3-fluoropyridin-2-yl)-3,4-dihydro-2H-chromen-7-yl)-5-cyclopropyl-N-(2-methoxyethyl)-2-oxo-1,2,3,4-tetrahydropyrido[4,3-d]pyrimidine-7-carboxamide] | 90% |
| Cc1ccc(OCc2c(F)cccc2F)cc1N1Cc2ccc(C#N)cc2NC1=O [Example 204, 3-(5-((2,6-difluorobenzyl)oxy)-2-methylphenyl)-2-oxo-1,2,3,4-tetrahydroquinazoline-7-carbonitrile] | 103% |
| O=C1Nc2ccnc(Cl)c2CN1c1cc2c(cc1Cl)CCC(c1ncccc1F)O2 (racemic) [Example 1, 5-chloro-3-(6-chloro-2-(3-fluoropyridin-2-yl)-3,4-dihydro-2H-chromen-7-yl)-3,4-dihydropyrido[4,3-d]pyrimidin-2(1H)-one] | 94% |
| Cc1nc(COc2ccc(C)c(N3Cc4ccc(C(C)(C)O)cc4NC3=O)c2)cs1 [Example 226, 7-(2-hydroxypropan-2-yl)-3-(2-methyl-5-((2-methyl-1,3-thiazol-4-yl)methoxy)phenyl)-3,4-dihydroquinazolin-2(1H)-one] | 52% |

Next, values leading:

| inhibitory rate (%) | Structure (SMILES) |
| --- | --- |
| 82% | Cc1ccc(OCc2ncccc2Cl)cc1N1Cc2nn(C)cc2NC1=O [Example 265, 6-(5-((3-chloropyridin-2-yl)methoxy)-2-methylphenyl)-2-methyl-2,4,6,7-tetrahydro-5H-pyrazolo[4,3-d]pyrimidin-5-one] |
| 81% | O=C1Nc2cc(CO)ccc2CN1c1cc(OCc2c(F)cccc2F)ccc1Cc1ccccc1 [Example 255, 3-(2-benzyl-5-((2,6-difluorobenzyl)oxy)phenyl)-7-(hydroxymethyl)-3,4-dihydroquinazolin-2(1H)-one] |
| 104% | Cc1ccc(OCc2ncccc2F)cc1N1Cc2ccc(C(=O)N3CCOCC3)cc2NC1=O [Example 288, 3-(5-((3-fluoropyridin-2-yl)methoxy)-2-methylphenyl)-7-(morpholin-4-ylcarbonyl)-3,4-dihydroquinazolin-2(1H)-one] |
| 86% | O=C1Nc2ccccc2CN1c1cc(OCc2ncccc2F)ccc1CNC1CC1 [Example 312, 3-(2-((cyclopropylamino)methyl)-5-((3-fluoropyridin-2-yl)methoxy)phenyl)-3,4-dihydroquinazolin-2(1H)-one] |
| 84% | CC(C)(O)c1ccc2c(c1)NC(=O)N(c1cc(OCc3c(F)cccc3F)ccc1C(F)(F)F)C2 [Example 238, 3-(5-((2,6-difluorobenzyl)oxy)-2-(trifluoromethyl)phenyl)-7-(2-hydroxypropan-2-yl)-3,4-dihydroquinazolin-2(1H)-one] |
| 101% | Cn1cc2c(n1)CN(c1cc(OCc3ncccc3F)ccc1Br)C(=O)N2 [Example 264, 6-(2-bromo-5-((3-fluoropyridin-2-yl)methoxy)phenyl)-2-methyl-2,4,6,7-tetrahydro-5H-pyrazolo[4,3-d]pyrimidin-5-one] |
| 100% | Cc1ccc(OCc2ncccc2F)cc1N1Cc2ccc(C(=O)Nc3ccccc3)cc2NC1=O [Example 273, 3-(5-((3-fluoropyridin-2-yl)methoxy)-2-methylphenyl)-2-oxo-N-phenyl-1,2,3,4-tetrahydroquinazoline-7-carboxamide] |
| 50% | O=c1[nH]c2ccccc2c(=O)n1-c1cc(OCc2c(F)cccc2F)ccn1 [Example 324, 3-(4-((2,6-difluorobenzyl)oxy)pyridin-2-yl)quinazoline-2,4(1H,3H)-dione] |
| 98% | CC(C)(O)c1ccc2c(c1)NC(=O)N(c1cc(OCc3c(F)cccc3F)ccc1Cc1ccccc1)C2 [Example 254, 3-(2-benzyl-5-((2,6-difluorobenzyl)oxy)phenyl)-7-(2-hydroxypropan-2-yl)-3,4-dihydroquinazolin-2(1H)-one] |
| 110% | Cc1ccc(OCc2ncccc2F)cc1-n1c(=O)[nH]c2c(Cl)cccc2c1=O [Example 347, 8-chloro-3-(5-((3-fluoropyridin-2-yl)methoxy)-2-methylphenyl)quinazoline-2,4(1H,3H)-dione] |
| 108% | O=c1[nH]c2ccc(Br)c(Cl)c2c(=O)n1-c1cc(OCc2ncccc2F)ccc1Cl [Example 368, 6-bromo-5-chloro-3-(2-chloro-5-((3-fluoropyridin-2-yl)methoxy)phenyl)quinazoline-2,4(1H,3H)-dione] |
